From article PMC6719014, “First-In-Class Inhibitors Targeting the Interaction between Bacterial RNA Polymerase and Sigma Initiation Factor Affect the Viability and Toxin Release of Streptococcus pneumoniae” (Molecules, 2019) come the findings set out here.

One test addresses T1, RNAP CH-σ (B. subtilis RpoC clamp-helix domain and full-length SigA) (Bacillus subtilis, UniProt P37871).
T1 construct: RpoC clamp-helix domain 220-315 with SmBiT NanoLuc tag (N-terminal, pCU252); full-length SigA with LgBiT NanoLuc tag (C-terminal, pCU251); purified recombinant; tags kept; with RNA polymerase sigma factor SigA
The test is described as follows: split-luciferase (NanoLuc) protein-protein interaction inhibition. The test is classed as biochemical. From the text: split-luciferase (NanoLuc) protein-protein interaction inhibition on RNAP CH-σ (B. subtilis RpoC clamp-helix domain and full-length SigA)
Broadly, the inhibition is the drop in the measured response relative to a control, in per cent. Low values mean a weak effect, high ones a strong effect. In the case of `Nc1ccccc1Sc1ccc(C(=O)c2ccccc2C(=O)O)cc1[N+](=O)[O-]` [C3-001, 2-(4-((2-Aminophenyl)thio)-3-nitrobenzoyl)benzoic Acid], the inhibition at 10 µM was determined as 62.2 ± 2.6%.
Still for that read-out and setting: in the case of `Nc1cccc(Sc2ccc(C(=O)c3ccccc3C(=O)O)cc2[N+](=O)[O-])c1` [C3-002, 2-(4-((3-Aminophenyl)thio)-3-nitrobenzoyl)benzoic Acid] it was 81.3 ± 4.9%.
The same measure, in the same setting: to `Nc1ccc(Sc2ccc(C(=O)c3ccccc3C(=O)O)cc2[N+](=O)[O-])cc1` [C3-003, 2-(4-((4-Aminophenyl)thio)-3-nitrobenzoyl)benzoic Acid] belongs 69.1 ± 10.7%; to `Nc1cc(Cl)ccc1Sc1ccc(C(=O)c2ccccc2C(=O)O)cc1[N+](=O)[O-]` [C3-004, 2-(4-((2-Amino-4-chlorophenyl)thio)-3-nitrobenzoyl)benzoic Acid], 60.5 ± 16.5%.
For `O=C(O)c1ccccc1C(=O)c1ccc(Sc2ccc(Cl)c(Cl)c2)c([N+](=O)[O-])c1` [C3-005, 2-(4-((3,4-Dichlorophenyl)thio)-3-nitrobenzoyl)benzoic Acid], the inhibition at 10 µM came to 81.7 ± 0.9%.

The target of another test is T1, RNAP CH-σ (B. subtilis RpoC clamp-helix domain and full-length SigA). The description is as above. The test is classed as binding. This is another data set of the same source.
Broadly, the IC50 is the concentration that gives 50% inhibition. Low readings indicate greater potency, high ones weaker potency. `Nc1ccccc1Sc1ccc(C(=O)c2ccccc2C(=O)O)cc1[N+](=O)[O-]` [C3-001, 2-(4-((2-Aminophenyl)thio)-3-nitrobenzoyl)benzoic Acid]: the IC50 stood at 6.4 ± 0.71 µM.
